Laboratory results taken from patent US8541590B2, “Proteasome inhibitors and processes for their preparation, purification and use” (Cephalon, Inc., priority 2009, dated 2013).
Marks after values point to notes of the source that are not given here.

What was measured:
[1] = Storage stability of boronic ester of Formula X, bulk solid state drug substance (Example 9); type: physicochemical
Protocol: Bulk solid state drug substance was put in polyethylene (PE) double bag in high-density polyethylene (HDPE) containers and the containers were stored under three conditions: (a) 4° C., (b) 25° C./60% relative humidity (RH), and (c) 40° C./75% RH.
6-(2S,3R)—N-[(1R)-1-(1,3,6,2-dioxazaborocan-2-yl)-3-methylbutyl}-3-hydroxy-2-{(6-phenylpyridin-2-yl)formamido]butanamide converts to [(1R)-1-[[(2S,3R)-3-Hydroxy-2-[[(6-phenylpyridin-2-yl)carbonyl]amino]-1-oxobutyl]amino]-3-methylbutyl]boronic acid (i.e., Compound 1) as soon as it is in the presence of an aqueous phase. Therefore, HPLC analysis of purity was of the [(1R)-1-[[(2S,3R)-3-Hydroxy-2-[[(6-phenylpyridin-2-yl)carbonyl]amino]-1-oxobutyl]amino]-3-methylbutyl]boronic acid hydrolysis product. Stability was tested at time zero (T0), and after storage for one month (1M), six months (6M) and (except for the 40° C./75% RH conditions) one year (12M).

[2] = Comparative bioavailability of bortezomib and boronic ester of Formula XI in rat, Example 10 (i.v.; p.o. in saline); type: in vivo, male Sprague Dawley rats; details: male, Sprague Dawley, iv, bortezomib in plasma, 0.8 mg/kg, mean ± SEM
Protocol: Three adult male Sprague Dawley rats were used in each treatment group. The rats were fasted overnight prior to oral dose administration. Intravenous administration was via the lateral tail vein and oral doses were administered by gavage. The compound was administered iv in a vehicle of 3% DMSO:30% Solutol:67% phosphate buffered saline. Oral dosing was in phosphate buffered saline.
For blood collection, each rat (unanesthetized) was placed in a clear Plexiglas® restraining tube, and blood samples (approximately 0.25 mL) were drawn from a lateral tail vein into heparinized collection tubes at predetermined sampling times (0.083, 0.25, 0.5, 1, 2, 4, and 6 hours post dose). No pre-dose samples were obtained. The exception to this procedure was the last sampling time in which the animals were sacrificed by decapitation and trunk blood was obtained rather than blood via a tail vein. The blood samples were placed on wet ice until centrifuged to separate plasma. The plasma fraction was transferred into clean dry tubes, frozen on dry ice and stored at approximately −20° C. pending analysis.
Plasma was prepared for high performance liquid chromatography (HPLC)/mass spectrometric analysis according to standard protocol following protein precipitation with acetonitrile containing an internal standard. The plasma samples were then analyzed for both bortezomib and alprenolol (internal standard) via HPLC coupled with tandem mass spectrometry.
The plasma concentration data for all rats were entered into Excel spreadsheets in preparation for pharmacokinetic analysis. Pharmacokinetic parameters for bortezomib were estimated for each rat by non-compartmental analysis (Gibaldi M, Perrier D. Pharmacokinetics, 2nd edition, Marcel Dekker, New York, Chapter 11, 1982) of the plasma concentration versus time data using WinNonlin software (Professional Version 4.1, Pharsight Corporation, Palo Alto, Calif., 1997).
The maximum plasma concentration (Cmax) was the highest observed plasma concentration after an oral dose; tmax was the corresponding time when Cmax was observed. The terminal rate constant for elimination from plasma (β) was estimated by linear regression of the terminal portion of the semi-logarithmic plasma concentration versus time curve. The apparent terminal half-life (t1/2) was calculated as 0.693 divided by β. The area under the plasma concentration versus time curve from time zero to the time of the last measurable concentration (AUC0-t) after a single dose was determined by the linear trapezoidal rule. The area from zero to infinity (AUC0-∞) was calculated as the sum of AUC0-t and the area extrapolated from the last measurable concentration to infinity (Clast/β). Concentrations pre dose were all assumed to be zero for the purpose of calculation of the AUC. Oral bioavailability was determined by dividing the dose normalized oral AUC0-∞ by the AUC0-∞ from iv dosing and multiplying by 100 to express the ratio as a percent.

[3] = Comparative storage stability of Compound 1, Batches A, B, C (Example 9A); type: physicochemical
Protocol: Three (3) separate batches of Compound 1 were tested for storage stability. The batches are identified as Batch A, Batch B, and Batch C below. Bulk solid state drug substance was put in polyethylene (PE) double bag in high-density polyethylene (HDPE) containers and the containers were stored under the indicated conditions.

[4] = Occupational exposure limit (OEL)
[5] = Batch B, 5° C./ambient RH, 1 Month
[6] = Batch B, 5° C./ambient RH, 3 Month
[7] = Batch B, 5° C./ambient RH, 6 Month
[8] = Batch C, 5° C./ambient RH, 1 Month
[9] = Batch C, 5° C./ambient RH, 3 Month
[10] = Batch C, 5° C./ambient RH, 6 Month
[11] = Batch C, 5° C./ambient RH, 12 Month

In the case of “6-(2S,3R)—N-[(1R)-1-(1,3,6,2-dioxazaborocan-2-yl)-3-methylbutyl}-3-hydroxy-2-{(6-phenylpyridin-2-yl)formamido]butanamide [boronic ester of Formula X]”, the Appearance ([1]; 4° C., 1 M) is reported as “White to off-”, the Appearance ([1]; 4° C., 6 M) is reported as “White to off-” and the Appearance ([1]; 4° C., 12 M) is reported as “White to off-”. The “Chemical purity (%)” value ([1]; 4° C./ambient RH, 1 M) was 99.8%, the “Impurity by HPLC (%) RRT = 0.49” value ([1]; 4° C./ambient RH, 1 M) was 0.06% and the “Impurity by HPLC (%) RRT = 1.18” value ([1]; 4° C./ambient RH, 1 M) was 0.17%. For the same compound, the “Chemical purity (%)” value ([1]; 4° C./ambient RH, 6 M) was 99.9%, the “Chemical purity (%)” value ([1]; 4° C./ambient RH, 12 M) was 99.9% and the “Impurity by HPLC (%) RRT = 1.18” value ([1]; 4° C./ambient RH, 12 M) was 0.07%. The Appearance ([1]; 25° C./60% RH, 1 M) was “White to off-”, the “Chemical purity (%)” value ([1]; 25° C./60% RH, 1 M) was 99.6% and the “Impurity by HPLC (%) RRT = 0.49” value ([1]; 25° C./60% RH, 1 M) was 0.09%. The “Impurity by HPLC (%) RRT = 1.18” value ([1]; 25° C./60% RH, 1 M) was 0.32%, the Appearance ([1]; 25° C./60% RH, 6 M) was “White to off-” and the “Chemical purity (%)” value ([1]; 25° C./60% RH, 6 M) was 99.8%. For the same compound, the “Impurity by HPLC (%) RRT = 0.49” value ([1]; 25° C./60% RH, 6 M) was 0.08%, the “Impurity by HPLC (%) RRT = 1.18” value ([1]; 25° C./60% RH, 6 M) was 0.06% and the Appearance ([1]; 25° C./60% RH, 12 M) was “White to off-”. The “Chemical purity (%)” value ([1]; 25° C./60% RH, 12 M) was 99.9%, the “Impurity by HPLC (%) RRT = 0.49” value ([1]; 25° C./60% RH, 12 M) was 0.07% and the “Impurity by HPLC (%) RRT = 1.18” value ([1]; 25° C./60% RH, 12 M) was 0.08%. For the same compound, the Appearance ([1]; 40° C./75% RH, 1 M) was “White to off-”, the “Chemical purity (%)” value ([1]; 40° C./75% RH, 1 M) was 99.7% and the “Impurity by HPLC (%) RRT = 0.49” value ([1]; 40° C./75% RH, 1 M) was 0.10%. For the same compound, the “Impurity by HPLC (%) RRT = 1.18” value ([1]; 40° C./75% RH, 1 M) was 0.18%, the Appearance ([1]; 40° C./75% RH, 6 M) was “White to off-” and the “Chemical purity (%)” value ([1]; 40° C./75% RH, 6 M) was 99.8%. The “Impurity by HPLC (%) RRT = 0.49” value ([1]; 40° C./75% RH, 6 M) was 0.10%, the “Impurity by HPLC (%) RRT = 1.18” value ([1]; 40° C./75% RH, 6 M) was 0.11% and the Appearance ([1]; T0) was “White to off-”. For the same compound, the “Impurity by HPLC (%) RRT = 1.18” value ([1]; T0) was 0.50% and the “Chemical purity (%)” value ([1]; T0, HPLC of Compound 1 hydrolysis product) was 99.5%.

An AUC(0-inf) ([2]; n = 3) of 472 ± 127 ng·h/mL, an AUC(0-t) ([2]; n = 3) of 459 ± 127 ng·h/mL and a Vd ([2]; n = 3) of 2.4 ± 0.8 L/kg were found for `CC(C)C[C@H](NC(=O)[C@H](Cc1ccccc1)NC(=O)c1cnccn1)B(O)O` [bortezomib, [(1R)-3-methyl-1-({(2S)-3-phenyl-2-[(pyrazin-2-ylcarbonyl)amino]propanoyl}amino)butyl]boronic acid] in this work. It also gave a clearance ([2]; n = 3) of 34 ± 11 mL/min/kg and a half-life ([2]; n = 3, read-out: t1/2, h (converted)) of 48 ± 6 min.

In the case of `CC(C)C[C@H](NC(=O)[C@@H](NC(=O)c1cccc(-c2ccccc2)n1)[C@@H](C)O)B(O)O` [Compound 1, [(1R)-1-[[(2S,3R)-3-hydroxy-2-[6-phenyl-pyridine-2-carbonyl)amino]-1-oxobutyl]amino]-3-methylbutylboronic acid], the “HPLC Purity (%)” value ([3]; Batch A, 4° C./ambient RH, 3 M) is reported as 94.5%, the Appearance ([3]; Batch A, 4° C./ambient RH, 3 Months) is reported as “White to off-” and the “HPLC Purity (%)” value ([3]; Batch A, 4° C./ambient RH, 6 M) is reported as 94.1%. For the same compound, the Appearance ([3]; Batch A, 4° C./ambient RH, 6 Months) was “White to off-”, the “HPLC Purity (%)” value ([3]; Batch A, 25° C./60% RH, 3 M) was 94.4% and the Appearance ([3]; Batch A, 25° C./60% RH, 3 Months) was “White to off-”. The “HPLC Purity (%)” value ([3]; Batch A, 25° C./60% RH, 6 M) was 94.1%, the Appearance ([3]; Batch A, 25° C./60% RH, 6 Months) was “White to off-” and the “HPLC Purity (%)” value ([3]; Batch A, 40° C./75% RH, 3 M) was 93.2%. For the same compound, the Appearance ([3]; Batch A, 40° C./75% RH, 3 Months) was “White to off-”, the “HPLC Purity (%)” value ([3]; Batch A, 40° C./75% RH, 6 M) was 88.7% and the Appearance ([3]; Batch A, 40° C./75% RH, 6 Months) was “White to off-”. The Appearance ([3]; Batch A, T0) was “White to off-”, the “HPLC Purity (%)” value ([3]; Batch A, T0 (estimated)) was 95.3* % and the Appearance [3, 5] was “White powder”. The “Assay by HPLC (anhydrous) (%)” value [3, 5] was 97.1%, the “Assay by HPLC (as-is) (%)” value [3, 5] was 90.6% and the “Total Impurities (%)” value [3, 5] was 3.0%. For the same compound, the “Water Content (%)” value [3, 5] was 6.0%, the Appearance [3, 6] was “White” and the “Assay by HPLC (anhydrous) (%)” value [3, 6] was 94.0%. For the same compound, the “Assay by HPLC (as-is) (%)” value [3, 6] was 87.5%, the “Total Impurities (%)” value [3, 6] was 5.9% and the “Water Content (%)” value [3, 6] was 6.1%. For the same compound, the Appearance [3, 7] was “White powder”, the “Assay by HPLC (anhydrous) (%)” value [3, 7] was 93.5% and the “Assay by HPLC (as-is) (%)” value [3, 7] was 85.1%. The “Total Impurities (%)” value [3, 7] was 7.3%, the “Water Content (%)” value [3, 7] was 8.2% and the Appearance ([3]; Batch B, 5° C./ambient RH, T0) was “White”. The “Assay by HPLC (anhydrous) (%)” value ([3]; Batch B, 5° C./ambient RH, T0) was 101.7%, the “Assay by HPLC (as-is) (%)” value ([3]; Batch B, 5° C./ambient RH, T0) was 94.4% and the “Total Impurities (%)” value ([3]; Batch B, 5° C./ambient RH, T0) was 0.6%. The “Water Content (%)” value ([3]; Batch B, 5° C./ambient RH, T0) was 6.5%, the Appearance [3, 8] was “White to yellow” and the “Assay by HPLC (anhydrous) (%)” value [3, 8] was 97.0%. For the same compound, the “Assay by HPLC (as-is) (%)” value [3, 8] was 91.4%, the “HPLC Purity (%)” value [3, 8] was 97.2% and the “Water Content (%)” value [3, 8] was 4.59%. The Appearance [3, 9] was “White to yellow”, the “Assay by HPLC (anhydrous) (%)” value [3, 9] was 102.4% and the “Assay by HPLC (as-is) (%)” value [3, 9] was 94.6%. The “HPLC Purity (%)” value [3, 9] was 96.2%, the “Water Content (%)” value [3, 9] was 6.48% and the Appearance [3, 10] was “Off-white”. The “Assay by HPLC (anhydrous) (%)” value [3, 10] was 99.9%, the “Assay by HPLC (as-is) (%)” value [3, 10] was 91.0% and the “HPLC Purity (%)” value [3, 10] was 96.3%. The “Water Content (%)” value [3, 10] was 7.74%, the Appearance [3, 11] was “Off-white” and the “Assay by HPLC (anhydrous) (%)” value [3, 11] was 95.9%. For the same compound, the “Assay by HPLC (as-is) (%)” value [3, 11] was 87.0%, the “HPLC Purity (%)” value [3, 11] was 96.2% and the “Water Content (%)” value [3, 11] was 8.16%. For the same compound, the Appearance ([3]; Batch C, 5° C./ambient RH, T0) was “Yellowish”, the “Assay by HPLC (anhydrous) (%)” value ([3]; Batch C, 5° C./ambient RH, T0) was 98.1% and the “Assay by HPLC (as-is) (%)” value ([3]; Batch C, 5° C./ambient RH, T0) was 92.9%. For the same compound, the “HPLC Purity (%)” value ([3]; Batch C, 5° C./ambient RH, T0) was 98.2%, the “Water Content (%)” value ([3]; Batch C, 5° C./ambient RH, T0) was 4.16% and the “increase of total impurities” value ([3]; within six months, refrigerated conditions) was “more than 10 fold”. For the same compound, the “occupational exposure limit (OEL)” value [4] was 0.3 μg/m^3.
